US20120021988A1, “METHODS FOR TREATING IMMUNE THROMBOCYTOPENIA” (priority 2007, published 2012)

Experiments:
Fcγ1 = assay: Repeated FcγR reverse ELISA with SEQ ID NO:20 (Table 3); format: binding
human C1q = assay: Reverse ELISA: inhibition of PAP immune complex binding to C1q coated plates
Excerpt: For this reason, a “reverse ELISA” technique has been used to assess binding of the Fc region to ligands that bind to immune complexed IgG Fc. In a reverse ELISA, the enzyme (e.g., HRP) is not covalently conjugated to the Fc portion of the secondary antibody. Rather, a preformed immune complex of peroxidase-rabbit (or mouse) anti-peroxidase IgG (“PAP” complex) is used. […] In the reverse ELISA system, an Fc CH2-CH3 cleft binding ligand (e.g., purified human C1q) was bound to microwell plates. In the absence of competitor, PAP complexes bound to the immobilized ligand and the reaction between HRP and its substrate produces a signal. This signal was reduced by polypeptides and compounds that inhibited PAP binding to the immobilized ligand.
PAP complexes were formed mixing 2 μl of rabbit anti-peroxidase (Sigma Chemicals, St. Louis, Mo.; Cat. No. P7899) with 50 μl of peroxidase (Sigma-Aldrich, Cat. No. P6782) in 1 ml distilled water. PAP (100 μl) were pre-incubated with 100 μl of peptide for one hour, 100 μl were pre-incubated with 100 μl of peptide or human C1q (Quidel Corp., San Diego, Calif.) for one hour. The C1q/PAP and peptide/PAP mixtures (100 μl) were incubated with C1q coated plates for 30 minutes. After washing, plates were incubated with ATBS (Quidel Corp.) for 15 minutes and read at 405 nm.

Q: “Ala-Pro-Pro-Asp-Cys-Ala-Trp-His-Leu-Gly-Glu-Leu-Val-Trp-Cys-Thr (APPDCAWHLGELVWCT) [SEQ ID NO:20]” was tested. Which “Fcγ1 (read at 405 nm)” value (Fcγ1; repeat experiment, positive control 2.333) did it give?
A: 0.264

Q: And the “% inhibition of IC binding, Fcγ1” value (Fcγ1; versus positive control)?
A: 89%

Q: And the “OD 405 nm” value (human C1q; PAP pre-incubated with peptide or C1q one hour, C1q coated plates, lower OD = more inhibition, positive control 2.355)?
A: 0.389

Q: And the “Inhibition of C1q binding (ranking in words)” value (human C1q; summary of Table 1)?
A: greatest inhibition of C1q binding
